Assay results: paper PMC5559473, “Screening of TB Actives for Activity against Nontuberculous Mycobacteria Delivers High Hit Rates” (Frontiers in Microbiology, 2017)
Values after ≈ are worked out from the molar mass of the structure shown.

Legend:
M. abscessus Bamboo [1] = assay: Single point growth inhibition screening assay; type: cell-based, Mycobacterium abscessus; conditions: 20 μM, 3 days
M. avium 11 [2] = assay: Single point growth inhibition screening assay; type: cell-based, Mycobacterium avium; conditions: M. avium 11, 20 μM, 4 days
M. avium 11 [3] = assay: Dose-response growth inhibition (broth microdilution); type: cell-based, Mycobacterium avium; conditions: Mycobacterium avium, 96 h, M. avium 11, 4 days
M. avium = conditions: ref Heifets et al., 1992; cited from earlier work
M. abscessus = conditions: ref Aziz et al., 2017; cited from earlier work
M. abscessus Bamboo [4] = assay: Bactericidal assay (CFU, fold kill); type: cell-based, Mycobacterium abscessus; conditions: 10^7 CFU/mL exposed to MIC90 for 3 days, CFU vs starting inoculum
M. avium 11 [5] = assay: Bactericidal assay (CFU, fold kill); type: cell-based, Mycobacterium avium; conditions: 10^7 CFU/mL exposed to MIC90 for 4 days, CFU vs starting inoculum
M. abscessus Bamboo [6] = assay: Dose-response growth inhibition (broth microdilution); type: cell-based, Mycobacterium abscessus; conditions: Mycobacteroides abscessus, 72 h, M. abscessus Bamboo, 3 days

Row | SMILES | Activity in primary screen (hit = equal or more than 80% growth inhibition) (M. abscessus Bamboo [1]) | Activity in primary screen (hit = equal or more than 80% growth inhibition) (M. avium 11 [2]) | MIC50 (M. avium 11 [3]; read-out: MIC50) [µM] | MIC90 (M. avium 11 [3]; read-out: MIC90) [µM] | Concentration required to reduce CFU 10-fold, relative to MIC90 (M. avium) | Concentration required to reduce CFU 10-fold, relative to MIC90 (M. abscessus) | Fold kill at MIC90 (M. abscessus Bamboo [4]) | Fold kill at MIC90 (M. avium 11 [5]) | MIC50 (M. abscessus Bamboo [6]; read-out: MIC50) [µM] | MIC90 (M. abscessus Bamboo [6]; read-out: MIC90) [µM]
1 | COc1nc2ccc(Br)cc2cc1[C@@H](c1ccccc1)[C@@](O)(CCN(C)C)c1cccc2ccccc12 [bedaquiline] | showed activity | showed activity |  |  |  |  |  |  |  | 
2 | CC[C@H]1OC(=O)[C@H](C)[C@@H](O[C@H]2C[C@@](C)(OC)[C@@H](O)[C@H](C)O2)[C@H](C)[C@@H](O[C@@H]2O[C@H](C)C[C@H](N(C)C)[C@H]2O)[C@](C)(OC)C[C@@H](C)C(=O)[C@H](C)[C@@H](O)[C@]1(C)O [clarithromycin, reference compound] |  |  | < 0.2 | 0.6 (≈ 0.449 µg/mL) | up to 64 times | up to 100 times | NK (NK, “no kill,” i.e., CFU reduction < 10-fold at MIC90) | NK (NK, “no kill,” i.e., CFU reduction < 10-fold at MIC90) | < 0.2 | 0.5 (≈ 0.374 µg/mL)
3 | C[C@H]1COc2c(N3CCN(C)CC3)c(F)cc3c(=O)c(C(=O)O)cn1c23 [levofloxacin] | showed activity | showed activity |  |  |  |  |  |  |  | 
